Data reported in publication PMC5122408, “High throughput chemical library screening identifies a novel p110-δ inhibitor that potentiates the anti-myeloma effect of bortezomib” (Oncotarget, 2016).

Key:
[1] = biological target: PKC2-α (Homo sapiens, UniProt O00443); test: Kinase inhibitory profile; format: biochemical; conditions: Class II PI3Ks; 10-point concentration assays
[2] = system: PKCγ; test: Kinase inhibitory profile; format: biochemical; conditions: Class II PI3Ks; 10-point concentration assays
[3] = biological target: VPS34 (Homo sapiens, UniProt Q8NEB9); test: Kinase inhibitory profile; format: biochemical; conditions: Class III PI3Ks; 10-point concentration assays
[4] = system: CCRF-CEM; test: NCI-60 panel cell growth screen; format: cell-based, human; conditions: CCRF-CEM (Leukemia)
[5] = system: K-562; test: NCI-60 panel cell growth screen; format: cell-based, human; conditions: K-562 (Leukemia)
[6] = system: RPMI-8226; test: NCI-60 panel cell growth screen; format: cell-based, human; conditions: RPMI-8226 (Leukemia)
[7] = system: EKVX; test: NCI-60 panel cell growth screen; format: cell-based, human; conditions: EKVX (NSCLC)
[8] = system: HOP-62; test: NCI-60 panel cell growth screen; format: cell-based, human; conditions: HOP-62 (NSCLC)
[9] = system: HO-92; test: NCI-60 panel cell growth screen; format: cell-based, human; conditions: HO-92 (NSCLC)
[10] = system: NCI-H460; test: NCI-60 panel cell growth screen; format: cell-based, human; conditions: NCI-H460 (NSCLC)
[11] = system: NCI-H522; test: NCI-60 panel cell growth screen; format: cell-based, human; conditions: NCI-H522 (NSCLC)
[12] = system: COLO205; test: NCI-60 panel cell growth screen; format: cell-based, human; conditions: COLO205 (Colon cancer)
[13] = system: HCT-15; test: NCI-60 panel cell growth screen; format: cell-based, human; conditions: HCT-15 (Colon cancer)
[14] = system: HT29; test: NCI-60 panel cell growth screen; format: cell-based, human; conditions: HT29 (Colon cancer)
[15] = system: SF-268; test: NCI-60 panel cell growth screen; format: cell-based, human; conditions: SF-268 (CNS Cancer)
[16] = system: SNB-19; test: NCI-60 panel cell growth screen; format: cell-based, human; conditions: SNB-19 (CNS Cancer)
[17] = system: MM.1S myeloma cells; test: Mouse xenograft model of myeloma; format: in vivo, mice; conditions: subcutaneous myeloma xenograft; intravenous; bortezomib 0.5 mg/kg, DT97 10 mg/kg
Procedure: Five week old nude mice flanks are injected subcutaneously with MM.1S myeloma cells. Tumors formed within two weeks and mice were then treated intravenously with vehicle, bortezomib, DT97 or both bortezomib and DT97.
Subcutaneous tumors were generated after injection of myeloma cells. […] Vehicle or bortezomib was administered on days 1, 4, 8 and 11. Mice were euthanized when tumors reached 2 cm^3, became ulcerated or elicited neurologic or musculoskeletal complications that limited mobility and feeding. Survival and tumor growth were evaluated from the first day of treatment. Shown is the average of replicate measurements. […] Kaplan-Meier survival curves comparison of NOD. SCID mice after subcutaneous injection of parental myeloma cells treated with vehicle, DT97, bortezomib or both.
Mice received intravenous injection of either vehicle (PBS in 10% DMSO); bortezomib (0.5 mg/kg), DT97 (10 mg/kg) or both bortezomib and DT97. Tumor volume (TV) measurements were made using a vernier caliper and calculated using the formula: TV = 0.5 (a × b^2) where a is the long diameter and b the short diameter. Mice were euthanized when tumors reached 2 cm^3, became ulcerated or elicited neurologic or musculoskeletal complications that limited mobility and feeding.
In vivo statistical tests were performed using the 2-tailed Student t test.

[18] = system: peripheral blood mononuclear cells (PBMCs); test: Apoptosis (in situ cell death detection) in PBMCs; format: cell-based; conditions: Figure 5B
[19] = system: BMSCs; test: XTT viability of BMSCs; format: cell-based; conditions: 72 h, XTT assay
[20] = system: AKT; test: Immunoblot of AKT phosphorylation in MM cells; format: cell-based; conditions: DT97 500 nm or 1 uM for 48 h
[21] = system: ERK1/2; test: Immunoblot of ERK1/2 phosphorylation in MM cells; format: cell-based; conditions: DT97 500 nm or 1 uM for 48 h
[22] = biological target: p110-γ (Homo sapiens, UniProt P48736); test: Kinase inhibitory profile / PIP3 production
Procedure: To directly assess PI3K activity, PI3K was isolated by immunoprecipitation using an antibody to the p85 adapter subunit and the ability of the co-precipitated catalytic p110 subunit to convert PIP2 to PIP3 in a kinase reaction assessed by measuring the amount of PIP3 generated using a competitive ELISA [40, 41]. […] Lysates were centrifuged at 13,000 × rpm for 10 min and supernatants stored at −80°C. Frozen lysates were thawed and PI3K immunoprecipitated with 5 μl anti-PI3K p85 (Cell Signaling Technology, Danvers, MA) for 1 h at 4°C, followed by the addition of 60 μl of a 50% slurry of Protein A agarose beads for 1 h at 4°C. The immunoprecipitate was collected by centrifugation at 13,000 × rpm for 10 sec, washed 3 times in buffer A + 1% NP40, thrice with 0.1 M Tris-HCl, pH 7.4, 5 mM LiCl, 0.1 mM Na orthovanadate and twice with 10 mM Tris-HCl, pH 7.4, 150 mM NaCl, 5 mM ethylenediaminetetraacetic acid (EDTA), 0.1 mM Na orthovanadate. […] Reactions were incubated for 3 h at 37°C with 40 pmol PIP2 (Echelon Biosciences, Salt Lake City, UT). Reactions were stopped with EDTA (5 mM) and centrifuged at 13,000 × rpm at 4°C. Supernatants were transferred to a microtitre plate for a competitive ELISA (Echelon Biosciences) to quantify PIP3 generated. […] Absorbance was measured (450 nm) and PIP3 quantified using a standard curve generated with experimental samples and plotted on a log scale.

[23] = read-out: LC50 (the source's name)

Chain of p110-γ (P48736 whole entry): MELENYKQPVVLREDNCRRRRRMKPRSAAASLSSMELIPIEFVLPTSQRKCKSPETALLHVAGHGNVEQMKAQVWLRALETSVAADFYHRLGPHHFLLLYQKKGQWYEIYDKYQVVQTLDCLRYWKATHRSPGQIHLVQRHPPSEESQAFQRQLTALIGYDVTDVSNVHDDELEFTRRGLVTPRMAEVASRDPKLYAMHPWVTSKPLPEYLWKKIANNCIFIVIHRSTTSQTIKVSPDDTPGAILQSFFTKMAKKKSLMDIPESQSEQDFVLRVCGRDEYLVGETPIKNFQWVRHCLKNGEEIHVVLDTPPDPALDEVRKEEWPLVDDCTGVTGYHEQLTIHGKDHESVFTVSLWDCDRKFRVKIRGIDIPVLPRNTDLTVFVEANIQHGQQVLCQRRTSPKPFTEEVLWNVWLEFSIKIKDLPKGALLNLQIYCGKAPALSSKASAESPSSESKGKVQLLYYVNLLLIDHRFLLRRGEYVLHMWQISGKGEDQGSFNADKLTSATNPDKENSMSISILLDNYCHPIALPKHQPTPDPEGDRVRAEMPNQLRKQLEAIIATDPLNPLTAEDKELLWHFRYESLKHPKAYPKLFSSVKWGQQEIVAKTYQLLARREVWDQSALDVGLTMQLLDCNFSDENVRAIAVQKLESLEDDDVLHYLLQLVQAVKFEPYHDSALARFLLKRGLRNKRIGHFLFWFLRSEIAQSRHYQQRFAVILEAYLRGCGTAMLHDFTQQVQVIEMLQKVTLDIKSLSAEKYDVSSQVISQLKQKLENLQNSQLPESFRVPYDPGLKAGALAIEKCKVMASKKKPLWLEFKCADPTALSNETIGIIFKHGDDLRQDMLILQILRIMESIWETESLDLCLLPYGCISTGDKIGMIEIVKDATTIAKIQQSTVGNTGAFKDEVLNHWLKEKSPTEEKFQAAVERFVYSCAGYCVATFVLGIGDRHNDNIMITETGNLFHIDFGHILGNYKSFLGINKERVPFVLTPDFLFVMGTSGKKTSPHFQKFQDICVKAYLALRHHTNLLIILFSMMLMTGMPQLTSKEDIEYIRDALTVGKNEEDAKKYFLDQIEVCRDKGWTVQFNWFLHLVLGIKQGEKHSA
Chain of PKC2-α (O00443 whole entry): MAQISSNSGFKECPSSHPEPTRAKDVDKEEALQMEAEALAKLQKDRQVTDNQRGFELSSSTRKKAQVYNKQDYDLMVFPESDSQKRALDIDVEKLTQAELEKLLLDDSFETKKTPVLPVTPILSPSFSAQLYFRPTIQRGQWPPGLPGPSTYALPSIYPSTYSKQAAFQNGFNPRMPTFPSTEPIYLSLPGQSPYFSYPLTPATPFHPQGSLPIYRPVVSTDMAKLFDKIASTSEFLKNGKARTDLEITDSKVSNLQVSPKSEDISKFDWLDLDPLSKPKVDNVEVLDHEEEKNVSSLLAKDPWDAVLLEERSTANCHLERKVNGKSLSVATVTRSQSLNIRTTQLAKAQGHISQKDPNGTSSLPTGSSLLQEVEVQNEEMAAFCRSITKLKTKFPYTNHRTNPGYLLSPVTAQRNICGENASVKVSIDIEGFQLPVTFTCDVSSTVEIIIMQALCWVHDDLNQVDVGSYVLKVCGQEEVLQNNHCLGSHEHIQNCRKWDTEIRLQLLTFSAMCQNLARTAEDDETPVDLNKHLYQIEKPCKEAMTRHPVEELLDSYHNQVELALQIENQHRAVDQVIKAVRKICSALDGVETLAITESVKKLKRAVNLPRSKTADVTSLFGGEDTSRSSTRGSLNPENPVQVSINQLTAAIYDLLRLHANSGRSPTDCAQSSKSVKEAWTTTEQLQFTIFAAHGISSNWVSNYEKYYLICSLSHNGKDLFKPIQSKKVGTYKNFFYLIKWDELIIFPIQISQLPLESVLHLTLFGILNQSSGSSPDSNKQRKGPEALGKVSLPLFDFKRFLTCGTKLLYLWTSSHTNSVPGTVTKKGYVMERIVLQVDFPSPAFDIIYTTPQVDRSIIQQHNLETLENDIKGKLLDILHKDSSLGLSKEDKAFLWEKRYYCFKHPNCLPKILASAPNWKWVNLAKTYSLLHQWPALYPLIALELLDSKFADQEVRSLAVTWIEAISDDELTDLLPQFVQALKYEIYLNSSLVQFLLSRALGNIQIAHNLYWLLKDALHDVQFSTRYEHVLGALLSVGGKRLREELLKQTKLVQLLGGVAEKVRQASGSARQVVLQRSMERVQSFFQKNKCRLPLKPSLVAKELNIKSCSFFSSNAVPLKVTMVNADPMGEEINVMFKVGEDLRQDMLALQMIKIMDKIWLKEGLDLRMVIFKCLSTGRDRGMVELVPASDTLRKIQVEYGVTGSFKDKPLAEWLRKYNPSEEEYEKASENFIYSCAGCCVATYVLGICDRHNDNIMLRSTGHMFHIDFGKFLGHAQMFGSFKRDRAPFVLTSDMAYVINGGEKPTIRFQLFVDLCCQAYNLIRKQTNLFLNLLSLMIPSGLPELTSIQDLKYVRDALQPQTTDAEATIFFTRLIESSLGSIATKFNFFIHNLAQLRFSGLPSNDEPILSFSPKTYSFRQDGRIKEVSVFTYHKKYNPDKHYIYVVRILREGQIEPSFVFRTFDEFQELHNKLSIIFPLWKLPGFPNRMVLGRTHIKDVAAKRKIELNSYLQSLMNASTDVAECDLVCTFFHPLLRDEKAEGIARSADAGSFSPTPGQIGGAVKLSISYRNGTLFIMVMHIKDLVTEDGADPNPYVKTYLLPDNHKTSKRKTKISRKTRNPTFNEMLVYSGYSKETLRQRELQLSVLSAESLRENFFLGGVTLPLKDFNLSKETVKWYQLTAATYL
Chain of VPS34 (Q8NEB9 whole entry): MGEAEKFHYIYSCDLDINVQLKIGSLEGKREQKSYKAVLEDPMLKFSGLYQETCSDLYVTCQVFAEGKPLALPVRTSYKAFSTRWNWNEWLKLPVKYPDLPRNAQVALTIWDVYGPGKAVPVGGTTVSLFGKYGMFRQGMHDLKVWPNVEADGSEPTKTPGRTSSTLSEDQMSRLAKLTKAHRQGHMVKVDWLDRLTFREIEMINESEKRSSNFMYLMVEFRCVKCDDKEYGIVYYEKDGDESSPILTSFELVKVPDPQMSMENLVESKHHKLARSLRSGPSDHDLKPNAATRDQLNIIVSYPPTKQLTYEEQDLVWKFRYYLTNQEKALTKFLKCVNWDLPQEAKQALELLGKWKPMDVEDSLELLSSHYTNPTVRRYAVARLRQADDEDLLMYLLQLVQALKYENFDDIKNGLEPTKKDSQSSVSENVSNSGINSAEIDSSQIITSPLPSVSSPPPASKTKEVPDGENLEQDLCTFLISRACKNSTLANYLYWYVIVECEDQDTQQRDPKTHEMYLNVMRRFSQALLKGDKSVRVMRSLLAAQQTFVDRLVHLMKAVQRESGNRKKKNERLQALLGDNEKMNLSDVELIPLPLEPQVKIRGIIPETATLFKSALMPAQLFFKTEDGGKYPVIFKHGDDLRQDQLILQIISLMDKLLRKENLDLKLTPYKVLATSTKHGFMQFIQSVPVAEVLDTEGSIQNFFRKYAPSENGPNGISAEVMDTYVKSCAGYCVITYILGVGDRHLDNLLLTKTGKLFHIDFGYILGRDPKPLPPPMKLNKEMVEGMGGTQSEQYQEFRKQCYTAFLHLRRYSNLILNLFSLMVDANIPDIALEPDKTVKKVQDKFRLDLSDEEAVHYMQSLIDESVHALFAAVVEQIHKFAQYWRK

N-[4-hydroxy-3-(8-quinolinylthio)-1-naphthyl]benzenesulfonamide [DT97]
Inhibitory profile (kinase inhibition) [1]: none | Inhibitory profile (kinase inhibition) [2]: none | Inhibitory profile (kinase inhibition) [3]: none | GI50 [4]: 426 nM | TGI [4]: 1.60E-5 | Percent Growth ([4]; log concentration −4.0): −7% | Percent Growth ([4]; log concentration −5.0): 2% | Percent Growth ([4]; log concentration −6.0): 17% | Percent Growth ([4]; log concentration −7.0): 106% | Percent Growth ([4]; log concentration −8.0): 104% | CC50 [4, 23]: > 100000 nM | GI50 [5]: 929 nM | TGI [5]: 1.65E-5 | Percent Growth ([5]; log concentration −4.0): −12% | Percent Growth ([5]; log concentration −5.0): 3% | Percent Growth ([5]; log concentration −6.0): 48% | Percent Growth ([5]; log concentration −7.0): 111% | Percent Growth ([5]; log concentration −8.0): 108% | CC50 [5, 23]: > 100000 nM | GI50 [6]: 2380 nM | TGI [6]: 7.90E-6 | Percent Growth ([6]; log concentration −4.0): −9% | Percent Growth ([6]; log concentration −5.0): −10% | Percent Growth ([6]; log concentration −6.0): 86% | Percent Growth ([6]; log concentration −7.0): 92% | Percent Growth ([6]; log concentration −8.0): 101% | CC50 [6, 23]: > 100000 nM | GI50 [7]: 1010 nM | TGI [7]: 8.55E-6 | Percent Growth ([7]; log concentration −4.0): −99% | Percent Growth ([7]; log concentration −5.0): −4% | Percent Growth ([7]; log concentration −6.0): 50% | Percent Growth ([7]; log concentration −7.0): 93% | Percent Growth ([7]; log concentration −8.0): 97% | GI50 [8]: 1010 nM | TGI [8]: 2.54E-5 | Percent Growth ([8]; log concentration −4.0): −37% | Percent Growth ([8]; log concentration −5.0): 26% | Percent Growth ([8]; log concentration −6.0): 50% | Percent Growth ([8]; log concentration −7.0): 95% | Percent Growth ([8]; log concentration −8.0): 93% | GI50 [9]: 2610 nM | TGI [9]: 7.38E-6 | Percent Growth ([9]; log concentration −4.0): −89% | Percent Growth ([9]; log concentration −5.0): −15% | Percent Growth ([9]; log concentration −6.0): 96% | Percent Growth ([9]; log concentration −7.0): 77% | Percent Growth ([9]; log concentration −8.0): 84% | CC50 [9, 23]: 29800 nM | GI50 [10]: 499 nM | TGI [10]: 1.37E-5 | Percent Growth ([10]; log concentration −4.0): −48% | Percent Growth ([10]; log concentration −5.0): 7% | Percent Growth ([10]; log concentration −6.0): 29% | Percent Growth ([10]; log concentration −7.0): 98% | Percent Growth ([10]; log concentration −8.0): 101% | GI50 [11]: 2120 nM | TGI [11]: 8.17E-6 | Percent Growth ([11]; log concentration −4.0): −48% | Percent Growth ([11]; log concentration −5.0): −7% | Percent Growth ([11]; log concentration −6.0): 68% | Percent Growth ([11]; log concentration −7.0): 95% | Percent Growth ([11]; log concentration −8.0): 95% | GI50 [12]: 1710 nM | TGI [12]: 3.70E-6 | Percent Growth ([12]; log concentration −4.0): −59% | Percent Growth ([12]; log concentration −5.0): −64% | Percent Growth ([12]; log concentration −6.0): 85% | Percent Growth ([12]; log concentration −7.0): 99% | Percent Growth ([12]; log concentration −8.0): 94% | CC50 [12, 23]: 8030 nM | GI50 [13]: 464 nM | TGI [13]: 2.50E-6 | Percent Growth ([13]; log concentration −4.0): −70% | Percent Growth ([13]; log concentration −5.0): −40% | Percent Growth ([13]; log concentration −6.0): 27% | Percent Growth ([13]; log concentration −7.0): 97% | Percent Growth ([13]; log concentration −8.0): 100% | CC50 [13, 23]: 21200 nM | GI50 [14]: 2420 nM | TGI [14]: 1.44E-5 | Percent Growth ([14]; log concentration −4.0): −44% | Percent Growth ([14]; log concentration −5.0): 8% | Percent Growth ([14]; log concentration −6.0): 76% | Percent Growth ([14]; log concentration −7.0): 108% | Percent Growth ([14]; log concentration −8.0): 103% | CC50 [14, 23]: > 100000 nM | GI50 [15]: 1480 nM | TGI [15]: 1.28E-5 | Percent Growth ([15]; log concentration −4.0): −68% | Percent Growth ([15]; log concentration −5.0): 8% | Percent Growth ([15]; log concentration −6.0): 59% | Percent Growth ([15]; log concentration −7.0): 100% | Percent Growth ([15]; log concentration −8.0): 98% | CC50 [15, 23]: 57700 nM | GI50 [16]: 1980 nM | TGI [16]: 2.14E-5 | Percent Growth ([16]; log concentration −4.0): −59% | Percent Growth ([16]; log concentration −5.0): 29% | Percent Growth ([16]; log concentration −6.0): 59% | Percent Growth ([16]; log concentration −7.0): 94% | Percent Growth ([16]; log concentration −8.0): 95% | CC50 [16, 23]: 78300 nM | overall survival (OS) [17]: 16 days | apoptosis [18]: did not induce apoptosis | viability [19]: did not significantly reduce the viability | phosphorylation of AKT at Ser308/Thr473 [20]: reduced the phosphorylation | phosphorylation of ERK1/2 at Thre202/Tyr-204 [21]: reduced the phosphorylation | Inhibitory profile (kinase inhibition) ([22]; Class I PI3Ks, 10-point concentration assays): none | production of PIP3 (dose-dependent effect) ([22]; p110-γ isoform, Figure 4B): no effect
